Source: patent US12023365B2, “Sustained release formulations of Crocus sativus” (COUNCIL OF SCIENTIFIC & INDUSTRIAL RESEARCH, priority 2017, dated 2024)

What was measured:
[1] = literature (Asai 2005; Liu and Qian 2002); cited from earlier work
[2] = system: scopolamine induced memory deficit; assay: Scopolamine induced dementia, passive avoidance test; format: in vivo; details: Swiss albino mice, 2 mg/kg
Description: Animals were randomized to their body weight (n=6-8). All animals were then habituated to experimental apparatus (Passive avoidance instrument of make—UGO Basile Biological Research Apparatus Italy) prior to the experiment. For habituation, animals were placed gently in the light compartment of the apparatus. After 5 seconds guillotine door was opened and animal allowed entering the dark compartment without giving the shock. Animals that took more than 100 seconds to enter the dark room were eliminated from the experiments. For acquisition trial the animals were placed in light compartment and allowed to enter the dark compartment through guillotine door. As soon as the animal entered to the dark compartment, door was closed and animal was delivered a foot shock (0.5 mA current) immediately for the duration of 5 seconds. Animals were then removed from apparatus after 20 seconds and placed temporarily in its home cage. Repeated the same procedure (keeping the gap between acquisition trials to 5 minutes) till the animal remained in the light compartment for consecutive 120 seconds. Retention was recorded at day 2 without shock in dark chamber. Increase in transfer latency time from light to dark chamber indicated learning in animals. Rivastigmine was used as positive control in this study. […] Percentage (%) change in transfer latency as compared with control on retention trial was calculated. […]

**Q.** Which plasma half-life [1] does the source give for `CC(/C=C/C=C(\C)C(=O)O)=C\C=C\C=C(C)\C=C\C=C(/C)C(=O)O` [crocetin] here?
**A.** ~2 h

**Q.** Which “effect on latency time (positive control)” value [2] does the source give for `CCN(C)C(=O)Oc1cccc([C@H](C)N(C)C)c1` [rivastigmine] here?
**A.** significant reduction in latency time
